Assay results from PMC12298883, “Discovery of Cyclopentane-Based Phospholipids as Miltefosine Analogs with Superior Potency and Enhanced Selectivity Against Naegleria fowleri” (Pharmaceuticals, 2025).
Where two headings read alike, the source gives them in different places.

Assays:
Format in all cases: cell-based, Naegleria fowleri
[1] = system: N. fowleri trophozoites; assay: Anti-amoebic viability assay (CellTiter-Blue) with microscopic observation; conditions: for Selectivity Index: CC50 of C6 glial cell divided by IC50 of inhibition of N. fowleri; for IC50 / IC90: 48 h, N. fowleri trophozoites, viability; for IC50: mean ± SD of three assays, read-out: IC50 of Inhibition of N. fowleri; for IC90: mean ± SD; for morphological changes of N. fowleri (microscopy): treated trophozoites versus 0.1% DMSO negative control; for Relative Potency to Miltefosine: IC50 of miltefosine divided by IC50 of compound, N. fowleri
Description: A viability assay was performed to evaluate the inhibitory activity of the tested compounds by determining their IC50 values against N. fowleri, using miltefosine as a reference drug. To assess the selectivity of the tested compounds relative to miltefosine, cytotoxic values that reduced the viability of C6 glial cells by 50% were established.
N. fowleri Carter NF69 strain (ATCC 30215; American Type Culture Collection, Manassas, VA, USA) was used. Amoeba trophozoites were cultured and maintained in Nelson’s medium containing 5% foetal bovine serum (FBS; Gibco, Grand Island, NY, USA) and 1% penicillin/streptomycin (P/S; Gibco, Grand Island, NY, USA) at 37 °C [56]. C6 rat glial cells (C6 cells; ATCC CCL-107) were cultured in Dulbecco’s Modified Eagle’s Medium (DMEM; Gibco, Grand Island, NY, USA) supplemented with 10% FBS (Gibco, Grand Island, NY, USA) and 1% P/S (Gibco, Grand Island, NY, USA) at 37 °C in a humidified incubator under 5% CO2 atmosphere.
N. fowleri trophozoites (5 × 10^4 cells/well) were seeded in a 96-well microplate (Thermo Fisher Scientific, Waltham, MA, USA) in Nelson’s medium and incubated at 37 °C overnight. N. fowleri trophozoites were treated with 2-fold serial dilutions of tested compounds (from 0 to 200 µM) or miltefosine (150 µM) and incubated at 37 °C for 48 h. The viability of the amoebae was determined using the CellTiter-Blue® Cell viability assay (Promega, Madison, WI, USA). Inhibitory concentration 50 (IC50) and IC90 were calculated by the nonlinear regression method using GraphPad Prism 9.1.0 software (GraphPad Software, San Diego, CA, USA). Amoebae treated with 0.1% DMSO were used as a control, representing 100% cell viability. Morphological changes of the amoebae were observed microscopically.

[2] = system: N. fowleri trophozoites; assay: Apoptosis/necrosis fluorescence staining assay; conditions: at IC90, 48 h; apopxin green, 7-AAD red, cytocalcein blue
Text: While apoptosis was previously believed to occur in multicellular metazoans, it was discovered that ancient forms of apoptotic-like cell death, which mimics some characteristics of apoptosis, can also trigger death in protozoa. In fact, apoptosis-like death is one of the programmed cell death molecular mechanisms in protozoa that also include necrosis. To further understand how compounds 2a, 3b and 3d trigger the death of N. fowleri in comparison to miltefosine, an evaluation of apoptosis and necrosis was conducted at IC90 of the tested compounds for 48 h. […] The diminished cytocalceine blue fluorescence, coupled with the surge in green fluorescence signifying apoptosis after treatment with the compounds (Figure 5), clearly indicates the reduction in viable cells and the initiation of programmed cell death. The absence of 7-AAD red fluorescence further reinforces the lack of detectable necrosis. This is a desirable trait for potential therapeutic agents, as necrosis, unlike apoptosis, can trigger inflammation due to the uncontrolled release of intracellular contents.
Figure 5 Apoptosis/necrosis assay. A fluorescence staining assay was performed using N. fowleri trophozoites treated with compounds 2a, 3b, 3d, and miltefosine (MF) as a reference; NC, negative controls with 0.1% DMSO treatment. Blue fluorescence representing living cells stained with cytocalcein (DAPI channel, Ex/Em = 405/450 nm). Green apopxin stains apoptotic cells to show green fluorescence (GFP channel, Ex/Em = 490/525 nm). 7-Amino Actinomycin D (7-AAD) stains late apoptotic cells and necrotic cells to show red fluorescence (RFP channel, Ex/Em = 550/650 nm). Images were representatives of cell populations in three individual experiments. Size bar: 10 µm.
Apoptosis/necrosis in treated N. fowleri trophozoites was assessed using the Apoptosis/Necrosis Detection Kit (Abcam, Cambridge, UK). N. fowleri trophozoites (5 × 10^4 cells/well) were seeded in a 96-well black/clear bottom plate (Thermo Fisher Scientific). Compounds 2a, 3b and 3d were treated to the cells at the concentrations of IC90 and incubated at 37 °C for 48 h. The apoptosis/necrosis assay was performed as described previously. Amoebae treated with 0.1% DMSO and miltefosine (IC90) were used as the negative controls (NC) and the positive controls, respectively.

[3] = system: N. fowleri trophozoites; assay: TUNEL assay (DNA fragmentation); conditions: at IC90, 48 h; PI counterstain
Description: To further confirm the apoptotic mode of cell death induced by compounds 2a, 3b and 3d in N. fowleri, a TUNEL assay was conducted. This assay detects DNA fragmentation, a hallmark of apoptosis, by incorporating fluorescent dUTP at DNA break sites. […] This difference could reflect variations in the specific molecular pathways targeted by each compound or differences in their cellular uptake or metabolism.
Figure 6 TUNEL assay. DNA fragmentation implying apoptosis was detected by TUNEL (GFP channel, (Ex/Em = 490/525 nm) in the amoebae treated with tested compounds. These amoebae were also counterstained with PI (RFP channel, Ex/Em = 550/650 nm). Miltefosine (MF) was included as a positive reference control. NC, negative controls with 0.1% DMSO treatment. Images were representatives of the cell population in three individual experiments. Size bar: 10 µm.
N. fowleri trophozoites (2 × 10^6 cells/well) were seeded in a 6-well plate (Thermo Fisher Scientific), treated with compounds 2a, 3b or 3d (IC90) and incubated at 37 °C for 48 h. The TUNEL assay was performed by using TUNEL Fluorescein Isothiocyanate (FITC) Assay Kit (Abcam, Cambridge, UK) as described previously. N. fowleri trophozoites treated with 0.01% DMSO was used as an NC. The amoeba treated with miltefosine (IC90) were used as a positive control.

CCCCCCCCCCCCCO[C@@H]1CCC[C@H]1COP(=O)([O-])OCC[N+](C)(C)C [Compound 2a] was tested, and the “Selectivity Index” value [1] was 7.53, the IC50 ([1]; Naegleria fowleri) was 42 ± 1.32 µM and the IC90 ([1]; Naegleria fowleri) was 109 µM. For the same compound, the “morphological changes of N. fowleri (microscopy)” value (“morphological changes” below) [1] was “dose-dependent morphological changes”, the “mode of cell death (apoptosis/necrosis staining)” value [2] was “apoptosis-like death, rather than necrosis” and the “DNA fragmentation (TUNEL green fluorescence)” value (shortened to “DNA fragmentation”) [3] was “intense green fluorescence, confirming DNA fragmentation”.
With CCCCCCCCCCCCCCCCCCCCCCOC[C@@H]1CCC[C@H]1OP(=O)([O-])OCC[N+](C)(C)C [Compound 3d] the “Selectivity Index” value [1] was 3.49, the “Relative Potency to Miltefosine” value [1] was 6.03 fold and the “fold the potency of trans-configured behenyl derivative 2d” value ([1]; N. fowleri IC50 ratio versus compound 2d) was 2.29 fold. For the same compound, the IC50 ([1]; Naegleria fowleri) was 24.3 ± 1.1 µM, the IC90 ([1]; Naegleria fowleri) was 187 µM and the “morphological changes” value [1] was “dose-dependent morphological changes”. The “mode of cell death (apoptosis/necrosis staining)” value [2] was “apoptosis-like death, rather than necrosis” and the “DNA fragmentation” value [3] was “intense green fluorescence, confirming DNA fragmentation”.
For CCCCCCCCCCCCCOC[C@@H]1CCC[C@H]1OP(=O)([O-])OCC[N+](C)(C)C [Compound 3b], the “Selectivity Index” value [1] was 3.90, the IC50 ([1]; Naegleria fowleri) was 40.9 ± 1.9 µM and the IC90 ([1]; Naegleria fowleri) was 104 µM. For the same compound, the “morphological changes” value [1] was “dose-dependent morphological changes”, the “mode of cell death (apoptosis/necrosis staining)” value [2] was “apoptosis-like death, rather than necrosis” and the “DNA fragmentation” value [3] was “intense green fluorescence, confirming DNA fragmentation”.
CCCCCCCCCCCCCCCCOP(=O)([O-])OCC[N+](C)(C)C [Miltefosine] was tested, and the “Selectivity Index” value [1] was about 1.08, the “Relative Potency to Miltefosine” value [1] was 1.00 fold and the IC50 [1] was 146.53 ± 0.12 µM. The IC50 ([1]; Naegleria fowleri) was 146.44 ± 0.12 µM, the IC90 ([1]; Naegleria fowleri) was over 200 µM and the “mode of cell death (apoptosis/necrosis staining)” value [2] was “apoptosis-like death, rather than necrosis”. For the same compound, the “DNA fragmentation” value [3] was “intense green fluorescence, confirming DNA fragmentation”.
